The record followed here is paper PMC8494682 (Applied Microbiology and Biotechnology, 2021).

Experiment [1] has as its target T1, pantothenate kinase (PanK, Cab1) (Saccharomyces cerevisiae, UniProt Q04430).
T1 construct: wild-type Cab1 expressed from pSBS5 in yeast strain JS91.14-24, partially purified on DEAE sepharose
T1 sequence (Q04430 1-367): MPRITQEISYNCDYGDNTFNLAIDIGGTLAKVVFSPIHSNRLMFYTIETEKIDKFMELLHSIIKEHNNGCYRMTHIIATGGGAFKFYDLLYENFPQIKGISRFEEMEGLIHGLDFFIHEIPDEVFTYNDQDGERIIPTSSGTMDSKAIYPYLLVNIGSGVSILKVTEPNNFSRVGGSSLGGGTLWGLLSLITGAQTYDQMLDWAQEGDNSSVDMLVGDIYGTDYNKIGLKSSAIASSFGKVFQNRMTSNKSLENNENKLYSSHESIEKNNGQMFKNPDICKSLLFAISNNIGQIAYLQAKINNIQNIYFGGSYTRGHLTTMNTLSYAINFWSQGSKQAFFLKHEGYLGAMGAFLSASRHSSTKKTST
Nature of the experiment: radiometric PanK assay with D-[[…]-14C]pantothenate, partially purified enzyme. The class given is biochemical.

Experiment [2] deals with T2, pantothenate kinase PanK3 (murine) (Mus musculus, UniProt Q8R2W9).
T2 construct: murine wild-type PanK3 expressed from pJO73 in yeast strain JS91.14-24, partially purified on DEAE sepharose
T2 sequence (Q8R2W9 1-370): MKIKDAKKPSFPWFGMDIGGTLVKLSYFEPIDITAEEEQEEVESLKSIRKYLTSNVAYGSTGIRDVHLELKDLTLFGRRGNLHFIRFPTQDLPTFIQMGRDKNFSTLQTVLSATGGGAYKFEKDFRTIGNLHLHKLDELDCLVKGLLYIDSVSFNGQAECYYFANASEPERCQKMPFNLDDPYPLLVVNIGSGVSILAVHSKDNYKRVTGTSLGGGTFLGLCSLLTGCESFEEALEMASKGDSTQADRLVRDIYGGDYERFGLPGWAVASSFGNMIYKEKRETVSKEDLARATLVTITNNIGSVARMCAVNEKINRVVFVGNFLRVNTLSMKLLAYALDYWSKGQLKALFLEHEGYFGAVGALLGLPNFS
The experiment is described as above. The experiment is classed as biochemical.

Read-outs that look alike come from different tables or passages of the source.

The IC50 is the midpoint of a concentration-inhibition curve. `CC(C)(COP(=O)(O)OP(=O)(O)OC[C@H]1O[C@@H](n2cnc3c(N)ncnc32)[C@H](O)[C@@H]1OP(=O)(O)O)[C@@H](O)C(=O)NCCC(=O)NCCSC(=O)CC(=O)O` [malonyl-CoA]: it took 812 µM to reach half-maximal inhibition in experiment [1] (IC50).

Consider `CC(C)(COP(=O)(O)OP(=O)(O)OC[C@H]1O[C@@H](n2cnc3c(N)ncnc32)[C@H](O)[C@@H]1OP(=O)(O)O)[C@@H](O)C(=O)NCCC(=O)NCCS` [Coenzyme A], for which, in experiment [1] (read-out: IC50), the IC50 worked out at 283 µM. Regarding `CC(=O)SCCNC(=O)CCNC(=O)[C@H](O)C(C)(C)COP(=O)(O)OP(=O)(O)OC[C@H]1O[C@@H](n2cnc3c(N)ncnc32)[C@H](O)[C@@H]1OP(=O)(O)O` [acetyl-CoA], the IC50 stood at 36 µM in experiment [1] and 1000 nM in experiment [2]. Regarding `CCCCCCCCCCCCCCCC(=O)SCCNC(=O)CCNC(=O)[C@H](O)C(C)(C)COP(=O)(O)OP(=O)(O)OC[C@H]1O[C@@H](n2cnc3c(N)ncnc32)[C@H](O)[C@@H]1OP(=O)(O)O` [palmitoyl-CoA], in experiment [1] (read-out: IC50), the concentration for half-maximal inhibition (IC50) was determined as 891 µM.
